# According to PubChem BioAssay AID248 (DTP/NCI, 2004):
# Values joined by “and” are separate entries in the source; they are usually repeats but may differ in a detail not shown here. Equal entries are not always repeated. Toxic doses and inconclusive results are not listed.
# Tested on: L1210 leukemia ip in BDF1 mice, survival T/C
# Assay: NCI In Vivo Anticancer Drug Screen. Data for tumor model L1210 Leukemia (intraperitoneal) in B6D2F1 (BDF1) mice
# Settings: higher = longer survival
# Summary of the method: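 Each compound was tested against a transplantable tumor grown in mice. The endpoint was survival, with treated animals benchmarked against vehicle controls as a simple ratio.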
smiles,measurement,setting,value
Nc1nc(=O)n(C2OC(CO)C(O)C2O)cc1F (stereo not drawn),T/C,"endpoint: mean survival time, dose: 0.02 mg/kg/injection, schedule: Q#A X020 (ip), vehicle: saline",104 % of control
same,T/C,"endpoint: mean survival time, dose: 0.04 mg/kg/injection, schedule: Q#A X020 (ip), vehicle: saline",109 % of control
same,T/C,"endpoint: mean survival time, dose: 0.05 mg/kg/injection, schedule: Q01DX010 (ip), vehicle: saline",98 % of control
same,T/C,"endpoint: mean survival time, dose: 0.09 mg/kg/injection, schedule: Q01DX010 (ip), vehicle: saline",102 % of control
same,T/C,"endpoint: mean survival time, dose: 0.09 mg/kg/injection, schedule: Q#A X020 (ip), vehicle: saline",118 % of control
same,T/C,"endpoint: mean survival time, dose: 0.16 mg/kg/injection, schedule: Q03DX003 (ip), vehicle: saline",108 % of control
same,T/C,"endpoint: mean survival time, dose: 0.19 mg/kg/injection, schedule: Q01DX010 (ip), vehicle: saline",118 % of control
same,T/C,"endpoint: mean survival time, dose: 0.31 mg/kg/injection, schedule: Q03DX003 (ip), vehicle: saline",108 % of control
same,T/C,"endpoint: mean survival time, dose: 0.37 mg/kg/injection, schedule: Q#A X020 (ip), vehicle: saline",169 % of control
same,T/C,"endpoint: mean survival time, dose: 0.38 mg/kg/injection, schedule: Q01DX010 (im), vehicle: saline",114 % of control
same,T/C,"endpoint: mean survival time, dose: 0.38 mg/kg/injection, schedule: Q01DX010 (ip), vehicle: saline",110 % of control
same,T/C,"endpoint: mean survival time, dose: 0.38 mg/kg/injection, schedule: Q01DX010 (sc), vehicle: saline",112 % of control
same,T/C,"endpoint: mean survival time, dose: 0.63 mg/kg/injection, schedule: Q03DX003 (ip), vehicle: saline",122 % of control
same,T/C,"endpoint: mean survival time, dose: 0.75 mg/kg/injection, schedule: Q01DX010 (im), vehicle: saline",120 % of control
same,T/C,"endpoint: mean survival time, dose: 0.75 mg/kg/injection, schedule: Q#A X020 (ip), vehicle: saline",211 % of control
same,T/C,"endpoint: mean survival time, dose: 1.25 mg/kg/injection, schedule: Q03DX003 (ip), vehicle: saline",122 % of control
same,T/C,"endpoint: mean survival time, dose: 1.5 mg/kg/injection, schedule: Q01DX010 (ip), vehicle: saline",177 % of control
same,T/C,"endpoint: mean survival time, dose: 1.5 mg/kg/injection, schedule: Q#A X020 (ip), vehicle: saline",217 % of control
same,T/C,"endpoint: mean survival time, dose: 1.56 mg/kg/injection, schedule: Q01DX010 (oral), vehicle: saline",106 % of control
same,T/C,"endpoint: mean survival time, dose: 2.5 mg/kg/injection, schedule: Q01DX001 (ip), vehicle: saline",120 % of control
same,T/C,"endpoint: mean survival time, dose: 2.5 mg/kg/injection, schedule: Q03DX004 (ip), vehicle: saline",157 % of control
same,T/C,"endpoint: mean survival time, dose: 2.5 mg/kg/injection, schedule: Q07DX002 (ip), vehicle: saline",111 % of control
same,T/C,"endpoint: mean survival time, dose: 3.0 mg/kg/injection, schedule: Q01DX006 (iv), vehicle: saline",124 % of control
same,T/C,"endpoint: mean survival time, dose: 3.0 mg/kg/injection, schedule: Q01DX010 (im), vehicle: saline",159 % of control and 166 % of control
same,T/C,"endpoint: mean survival time, dose: 3.0 mg/kg/injection, schedule: Q01DX010 (ip), vehicle: saline",166 % of control
same,T/C,"endpoint: mean survival time, dose: 3.0 mg/kg/injection, schedule: Q01DX010 (sc), vehicle: saline",152 % of control and 162 % of control
same,T/C,"endpoint: mean survival time, dose: 3.12 mg/kg/injection, schedule: Q01DX015 (ip), vehicle: saline",195 % of control
same,T/C,"endpoint: mean survival time, dose: 3.13 mg/kg/injection, schedule: Q01DX010 (oral), vehicle: saline",112 % of control
same,T/C,"endpoint: mean survival time, dose: 4.0 mg/kg/injection, schedule: Q01DX009 (ip), vehicle: saline",173 % of control
same,T/C,"endpoint: mean survival time, dose: 5.0 mg/kg/injection, schedule: Q01DX001 (ip), vehicle: saline",122 % of control
same,T/C,"endpoint: mean survival time, dose: 5.0 mg/kg/injection, schedule: Q03DX004 (ip), vehicle: saline",157 % of control
same,T/C,"endpoint: mean survival time, dose: 6.0 mg/kg/injection, schedule: Q01DX010 (im), vehicle: saline",176 % of control
same,T/C,"endpoint: mean survival time, dose: 6.0 mg/kg/injection, schedule: Q01DX010 (ip), vehicle: saline",183 % of control
same,T/C,"endpoint: mean survival time, dose: 6.0 mg/kg/injection, schedule: Q01DX010 (sc), vehicle: saline",178 % of control
same,T/C,"endpoint: mean survival time, dose: 6.25 mg/kg/injection, schedule: Q01DX010 (oral), vehicle: saline",118 % of control
same,T/C,"endpoint: mean survival time, dose: 8.0 mg/kg/injection, schedule: Q01DX009 (ip), vehicle: saline",216 % of control
same,T/C,"endpoint: mean survival time, dose: 10.0 mg/kg/injection, schedule: Q01DX001 (ip), vehicle: saline",124 % of control
same,T/C,"endpoint: mean survival time, dose: 10.0 mg/kg/injection, schedule: Q03DX004 (ip), vehicle: saline",160 % of control
same,T/C,"endpoint: mean survival time, dose: 10.0 mg/kg/injection, schedule: Q03DX Z (ip), vehicle: saline",166 % of control
same,T/C,"endpoint: mean survival time, dose: 12.0 mg/kg/injection, schedule: Q01DX006 (iv), vehicle: saline",157 % of control
same,T/C,"endpoint: mean survival time, dose: 12.0 mg/kg/injection, schedule: Q01DX010 (im), vehicle: saline",217 % of control
same,T/C,"endpoint: mean survival time, dose: 12.0 mg/kg/injection, schedule: Q01DX010 (ip), vehicle: saline",197 % of control
same,T/C,"endpoint: mean survival time, dose: 12.0 mg/kg/injection, schedule: Q01DX010 (sc), vehicle: saline",203 % of control
same,T/C,"endpoint: mean survival time, dose: 12.0 mg/kg/injection, schedule: Q#A X020 (ip), vehicle: saline",201 % of control
same,T/C,"endpoint: mean survival time, dose: 12.5 mg/kg/injection, schedule: Q01DX010 (oral), vehicle: saline",153 % of control
same,T/C,"endpoint: mean survival time, dose: 20.0 mg/kg/injection, schedule: Q01DX001 (ip), vehicle: saline",118 % of control
same,T/C,"endpoint: mean survival time, dose: 20.0 mg/kg/injection, schedule: Q03DX Z (ip), vehicle: saline",174 % of control
same,T/C,"endpoint: mean survival time, dose: 24.0 mg/kg/injection, schedule: Q01DX006 (iv), vehicle: saline",160 % of control and 191 % of control
same,T/C,"endpoint: mean survival time, dose: 24.0 mg/kg/injection, schedule: Q01DX010 (ip), vehicle: saline",191 % of control
same,T/C,"endpoint: mean survival time, dose: 24.0 mg/kg/injection, schedule: Q#A X020 (ip), vehicle: saline",120 % of control
same,T/C,"endpoint: mean survival time, dose: 25.0 mg/kg/injection, schedule: Q01DX005 (ip), vehicle: saline",150 % of control and 160 % of control
same,T/C,"endpoint: mean survival time, dose: 25.0 mg/kg/injection, schedule: Q01DX010 (oral), vehicle: saline",174 % of control
same,T/C,"endpoint: mean survival time, dose: 40.0 mg/kg/injection, schedule: Q01DX001 (ip), vehicle: saline",122 % of control
same,T/C,"endpoint: mean survival time, dose: 40.0 mg/kg/injection, schedule: Q01DX005 (ip), vehicle: saline",174 % of control
same,T/C,"endpoint: mean survival time, dose: 40.0 mg/kg/injection, schedule: Q03DX Z (ip), vehicle: saline",198 % of control
same,T/C,"endpoint: mean survival time, dose: 48.0 mg/kg/injection, schedule: Q01DX006 (iv), vehicle: saline",180 % of control
same,T/C,"endpoint: mean survival time, dose: 48.0 mg/kg/injection, schedule: Q01DX010 (ip), vehicle: saline",116 % of control
same,T/C,"endpoint: mean survival time, dose: 48.0 mg/kg/injection, schedule: Q#A X020 (ip), vehicle: saline",101 % of control
same,T/C,"endpoint: mean survival time, dose: 50.0 mg/kg/injection, schedule: Q01DX001 (ip), vehicle: saline",124 % of control
same,T/C,"endpoint: mean survival time, dose: 50.0 mg/kg/injection, schedule: Q01DX010 (oral), vehicle: saline",186 % of control
same,T/C,"endpoint: mean survival time, dose: 64.0 mg/kg/injection, schedule: Q01DX009 (oral), vehicle: saline",168 % of control
same,T/C,"endpoint: mean survival time, dose: 80.0 mg/kg/injection, schedule: Q01DX005 (ip), vehicle: saline",168 % of control
same,T/C,"endpoint: mean survival time, dose: 80.0 mg/kg/injection, schedule: Q03DX004 (ip), vehicle: saline",180 % of control
same,T/C,"endpoint: mean survival time, dose: 80.0 mg/kg/injection, schedule: Q03DX Z (ip), vehicle: saline",201 % of control
same,T/C,"endpoint: mean survival time, dose: 96.0 mg/kg/injection, schedule: Q01DX006 (iv), vehicle: saline",177 % of control
same,T/C,"endpoint: mean survival time, dose: 96.0 mg/kg/injection, schedule: Q01DX010 (ip), vehicle: saline",112 % of control
same,T/C,"endpoint: mean survival time, dose: 96.0 mg/kg/injection, schedule: Q#A X020 (ip), vehicle: saline",103 % of control
same,T/C,"endpoint: mean survival time, dose: 100.0 mg/kg/injection, schedule: Q01DX001 (ip), vehicle: saline",118 % of control
same,T/C,"endpoint: mean survival time, dose: 100.0 mg/kg/injection, schedule: Q01DX009 (ip), vehicle: saline",183 % of control
same,T/C,"endpoint: mean survival time, dose: 100.0 mg/kg/injection, schedule: Q01DX010 (oral), vehicle: saline",157 % of control
same,T/C,"endpoint: mean survival time, dose: 128.0 mg/kg/injection, schedule: Q01DX001 (oral), vehicle: saline",110 % of control
same,T/C,"endpoint: mean survival time, dose: 128.0 mg/kg/injection, schedule: Q01DX009 (oral), vehicle: saline",181 % of control
same,T/C,"endpoint: mean survival time, dose: 160.0 mg/kg/injection, schedule: Q01DX005 (ip), vehicle: saline",168 % of control
same,T/C,"endpoint: mean survival time, dose: 160.0 mg/kg/injection, schedule: Q03DX004 (ip), vehicle: saline",198 % of control
same,T/C,"endpoint: mean survival time, dose: 160.0 mg/kg/injection, schedule: Q07DX002 (ip), vehicle: saline",154 % of control
same,T/C,"endpoint: mean survival time, dose: 160.0 mg/kg/injection, schedule: Q07DX Z (ip), vehicle: saline",152 % of control
same,T/C,"endpoint: mean survival time, dose: 192.0 mg/kg/injection, schedule: Q01DX006 (iv), vehicle: saline",95 % of control
same,T/C,"endpoint: mean survival time, dose: 192.0 mg/kg/injection, schedule: Q01DX010 (im), vehicle: saline",110 % of control
same,T/C,"endpoint: mean survival time, dose: 192.0 mg/kg/injection, schedule: Q01DX010 (ip), vehicle: saline",108 % of control
same,T/C,"endpoint: mean survival time, dose: 192.0 mg/kg/injection, schedule: Q01DX010 (sc), vehicle: saline",119 % of control
same,T/C,"endpoint: mean survival time, dose: 200.0 mg/kg/injection, schedule: Q01DX001 (ip), vehicle: saline",119 % of control
same,T/C,"endpoint: mean survival time, dose: 200.0 mg/kg/injection, schedule: Q01DX009 (ip), vehicle: saline",93 % of control
same,T/C,"endpoint: mean survival time, dose: 256.0 mg/kg/injection, schedule: Q01DX001 (oral), vehicle: saline",117 % of control
same,T/C,"endpoint: mean survival time, dose: 320.0 mg/kg/injection, schedule: Q07DX002 (ip), vehicle: saline",182 % of control
same,T/C,"endpoint: median survival time, dose: 2.0 mg/kg/injection, schedule: Q01DX009 (ip), vehicle: saline with Tween-80",168 % of control
same,T/C,"endpoint: median survival time, dose: 4.0 mg/kg/injection, schedule: Q01DX009 (ip), vehicle: saline with Tween-80",175 % of control
same,T/C,"endpoint: median survival time, dose: 4.0 mg/kg/injection, schedule: Q01DX009 (ip), vehicle: saline",160 % of control and 175 % of control
same,T/C,"endpoint: median survival time, dose: 8.0 mg/kg/injection, schedule: Q01DX009 (ip), vehicle: saline with Tween-80",183 % of control
same,T/C,"endpoint: median survival time, dose: 8.0 mg/kg/injection, schedule: Q01DX009 (ip), vehicle: saline",170 % of control and 187 % of control
same,T/C,"endpoint: median survival time, dose: 16.0 mg/kg/injection, schedule: Q01DX009 (ip), vehicle: saline with Tween-80",186 % of control
same,T/C,"endpoint: median survival time, dose: 16.0 mg/kg/injection, schedule: Q01DX009 (ip), vehicle: saline",190 % of control
same,T/C,"endpoint: median survival time, dose: 32.0 mg/kg/injection, schedule: Q01DX009 (ip), vehicle: saline with Tween-80",202 % of control
same,T/C,"endpoint: median survival time, dose: 32.0 mg/kg/injection, schedule: Q01DX009 (ip), vehicle: saline",160 % of control
